{"source": "ChEMBL document CHEMBL5634072", "about": "“The recent advance of Interleukin-1 receptor associated kinase 4 inhibitors for the treatment of inflammation and related diseases” (Eur J Med Chem, 2023)", "key": {"[1]": {"molecular_target": "Protein cereblon/Interleukin-1 receptor-associated kinase 4 (Homo sapiens, UniProt Q96SW2+Q9NWZ3)", "sequence (Q96SW2 whole entry, one chain of several)": "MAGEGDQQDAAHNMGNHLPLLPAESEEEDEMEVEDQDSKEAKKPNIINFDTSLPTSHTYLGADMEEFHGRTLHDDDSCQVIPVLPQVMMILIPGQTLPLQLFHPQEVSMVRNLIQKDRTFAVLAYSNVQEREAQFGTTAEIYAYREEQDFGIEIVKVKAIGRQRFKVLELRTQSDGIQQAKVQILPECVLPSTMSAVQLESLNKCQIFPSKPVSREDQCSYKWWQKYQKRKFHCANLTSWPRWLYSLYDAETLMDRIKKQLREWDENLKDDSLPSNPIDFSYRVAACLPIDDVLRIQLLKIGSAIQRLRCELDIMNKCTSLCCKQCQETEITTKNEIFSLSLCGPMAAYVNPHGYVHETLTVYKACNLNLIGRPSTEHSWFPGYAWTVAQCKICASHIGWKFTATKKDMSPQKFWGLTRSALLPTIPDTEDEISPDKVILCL", "assay": "Binding affinity to CRBN/IRAK4 in human PBMC cells assessed as inhibition of LPS-stimulated IL-6 production incubated for 24 hrs by MSD analysis", "assay_type": "cell-based"}, "[2]": {"molecular_target": "T1, Interleukin-1 receptor-associated kinase 4 (Homo sapiens, UniProt Q9NWZ3)", "T1 sequence (Q9NWZ3 whole entry)": "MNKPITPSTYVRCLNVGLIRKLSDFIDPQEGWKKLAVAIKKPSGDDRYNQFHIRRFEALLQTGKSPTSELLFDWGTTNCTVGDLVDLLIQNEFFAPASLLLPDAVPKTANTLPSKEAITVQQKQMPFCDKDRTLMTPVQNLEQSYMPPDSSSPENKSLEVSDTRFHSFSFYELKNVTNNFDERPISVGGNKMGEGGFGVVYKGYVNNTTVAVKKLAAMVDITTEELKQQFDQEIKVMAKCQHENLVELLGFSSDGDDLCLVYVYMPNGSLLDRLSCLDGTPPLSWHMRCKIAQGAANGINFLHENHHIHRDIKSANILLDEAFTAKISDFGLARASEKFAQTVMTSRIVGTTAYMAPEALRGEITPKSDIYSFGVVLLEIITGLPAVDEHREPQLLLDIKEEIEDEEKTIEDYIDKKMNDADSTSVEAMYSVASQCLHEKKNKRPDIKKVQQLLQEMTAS", "assay": "Inhibition of IRAK4 (unknown origin)"}, "[3]": {"molecular_target": "Interleukin-1 receptor-associated kinase 1 (Homo sapiens, UniProt P51617)", "sequence (P51617 whole entry)": "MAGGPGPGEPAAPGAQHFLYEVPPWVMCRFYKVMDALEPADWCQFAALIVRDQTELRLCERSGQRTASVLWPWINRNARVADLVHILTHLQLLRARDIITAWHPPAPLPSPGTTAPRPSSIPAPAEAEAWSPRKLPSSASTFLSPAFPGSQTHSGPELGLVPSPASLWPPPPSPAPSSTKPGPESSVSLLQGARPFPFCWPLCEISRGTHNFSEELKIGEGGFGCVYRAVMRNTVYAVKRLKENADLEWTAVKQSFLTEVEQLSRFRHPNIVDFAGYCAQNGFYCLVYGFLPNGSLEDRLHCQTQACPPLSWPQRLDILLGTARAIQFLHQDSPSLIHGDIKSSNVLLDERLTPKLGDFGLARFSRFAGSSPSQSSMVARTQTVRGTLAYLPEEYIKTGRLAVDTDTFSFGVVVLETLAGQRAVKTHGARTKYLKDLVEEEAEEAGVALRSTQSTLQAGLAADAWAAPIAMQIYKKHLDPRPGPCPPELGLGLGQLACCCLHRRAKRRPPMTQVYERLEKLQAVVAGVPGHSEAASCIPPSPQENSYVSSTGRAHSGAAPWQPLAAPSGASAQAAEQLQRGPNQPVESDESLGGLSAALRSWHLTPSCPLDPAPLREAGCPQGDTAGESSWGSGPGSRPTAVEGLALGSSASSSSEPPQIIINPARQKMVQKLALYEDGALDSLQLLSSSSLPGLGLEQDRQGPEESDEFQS", "assay": "Inhibition of IRAK1 (unknown origin) by Ambit kinase assay"}, "Cyclic GMP-AMP synthase": {"molecular_target": "Cyclic GMP-AMP synthase (Homo sapiens, UniProt Q8N884)", "sequence (Q8N884 whole entry)": "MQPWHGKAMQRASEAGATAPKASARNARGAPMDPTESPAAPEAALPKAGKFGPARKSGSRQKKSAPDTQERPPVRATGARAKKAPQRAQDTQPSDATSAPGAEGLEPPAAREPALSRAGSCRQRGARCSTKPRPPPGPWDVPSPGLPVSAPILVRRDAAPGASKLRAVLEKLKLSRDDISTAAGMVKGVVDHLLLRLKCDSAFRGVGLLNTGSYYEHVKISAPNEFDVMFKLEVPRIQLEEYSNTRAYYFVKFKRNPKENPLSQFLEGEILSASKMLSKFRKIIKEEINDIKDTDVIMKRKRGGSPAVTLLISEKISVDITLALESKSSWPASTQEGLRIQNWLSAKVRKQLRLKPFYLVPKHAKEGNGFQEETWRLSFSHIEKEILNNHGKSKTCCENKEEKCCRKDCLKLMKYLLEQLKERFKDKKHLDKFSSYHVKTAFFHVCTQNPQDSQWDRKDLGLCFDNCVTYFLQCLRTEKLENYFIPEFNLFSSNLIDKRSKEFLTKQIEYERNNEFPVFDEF", "assay": "Inhibition of cyclic GMP-AMP synthase (unknown origin)"}, "[4]": {"molecular_target": "T1, Interleukin-1 receptor-associated kinase 4", "assay": "Inhibition of IRAK4 (unknown origin) by Ambit kinase assay"}, "[5]": {"molecular_target": "T1, Interleukin-1 receptor-associated kinase 4", "assay": "Inhibition of IRAK4 (unknown origin) by discoverX kinome scan assay"}, "[6]": {"molecular_target": "T2, Protein cereblon/Interleukin-1 receptor-associated kinase 4 (Homo sapiens) (UniProt Q9NWZ3+Q96SW2)", "T2 sequence (Q96SW2 whole entry, looked up, one chain of several)": "as the sequence (Q96SW2 whole entry, one chain of several) above", "assay": "PROTAC activity at CRBN/IRAK4 in human PBMC cells assessed as induction of degradation at 1 uM measured after 24 hrs by Immuno-blotting analysis relative to control", "assay_type": "cell-based"}, "[7]": {"molecular_target": "T2, Protein cereblon/Interleukin-1 receptor-associated kinase 4 (Homo sapiens)", "assay": "PROTAC activity at CRBN/IRAK4 in human PBMC cells assessed as induction of degradation at 0.01 uM measured after 24 hrs by Immuno-blotting analysis relative to control", "assay_type": "cell-based"}, "[8]": {"molecular_target": "T2, Protein cereblon/Interleukin-1 receptor-associated kinase 4 (Homo sapiens)", "assay": "PROTAC activity at CRBN/IRAK4 in human PBMC cells assessed as induction of degradation at 0.1 uM measured after 24 hrs by Immuno-blotting analysis relative to control", "assay_type": "cell-based"}}, "data": [{"smiles": "Cn1cc2c(n1)C(=O)NCC1CN(CCO1)C(=O)OCCn1cc(cn1)-c1cccc(n1)C(=O)N2", "note": "(centres undefined)", "values": [{"measurement": "IC50", "setting": "[1]", "result": 100, "unit": "nM"}]}, {"smiles": "O=C(Nc1ccc(CN2CCNCC2)c(C(F)(F)F)c1)c1cccc(-c2ccc3nc(NC(=O)C4CC4)sc3n2)c1", "values": [{"measurement": "IC50", "setting": "[2]", "result": 165, "unit": "nM"}]}, {"smiles": "CN(C)[C@H]1CC[C@H](Oc2ncnc3sc4c(c23)[C@@H](CCC#N)CC4)CC1", "values": [{"measurement": "IC50", "setting": "[3]", "result": "< 5000", "unit": "nM"}]}, {"smiles": "Cc1ccn2c(C(=O)C(=O)c3ccccc3)c(-c3ccccc3)nc2c1", "values": [{"measurement": "IC50", "setting": "Cyclic GMP-AMP synthase", "result": 2.1, "unit": "nM"}]}, {"smiles": "O=C1Nc2nc3ccccc3n2Cc2cc(ccn2)-c2ccc(=O)n(n2)Cc2cccc1c2", "values": [{"measurement": "IC50", "setting": "[1]", "result": "< 100", "unit": "nM"}]}, {"smiles": "Cc1cc(-c2nc(C(=O)Nc3cc4cn(CCC(C)(C)O)nc4cc3C(C)(C)O)co2)ccn1", "values": [{"measurement": "IC50", "setting": "[4]", "result": 0.55, "unit": "nM"}]}, {"smiles": "Cn1cc2c(n1)C(=O)NCCn1cc(cn1)-c1ccc(=O)n(n1)Cc1cccc(c1)C(=O)N2", "values": [{"measurement": "IC50", "setting": "[1]", "result": "< 100", "unit": "nM"}]}, {"smiles": "CC(C)CCNC(=O)c1ccc2c(c1)nc(Nc1n[nH]c3ccc(-c4ccccc4OC(F)(F)F)cc13)n2C1CCC(O)CC1", "note": "(centres undefined)", "values": [{"measurement": "IC50", "setting": "[2]", "result": "< 10", "unit": "nM"}]}, {"smiles": "O=C1Nc2cn(C3CCOCC3)nc2C(=O)NCCOCCCc2cc(ccn2)-c2nc1cs2", "values": [{"measurement": "IC50", "setting": "[5]", "result": 1, "unit": "nM"}]}, {"smiles": "CC(C)(O)CCn1cc2cc(NC(=O)c3cccc(C(F)(F)F)n3)c(C3COC3)cc2n1", "values": [{"measurement": "IC50", "setting": "[4]", "result": 1.6, "unit": "nM"}]}, {"smiles": "O=C1CCC(N2C(=O)c3cccc(NCc4cn(CCCNC(=O)c5ccc(-n6cc(NC(=O)c7coc(-c8ccnc(NCC9CC9)c8)n7)c(C(F)(F)F)n6)cc5)cn4)c3C2=O)C(=O)N1", "note": "(centres undefined)", "values": [{"measurement": "Activity", "setting": "[6]", "result": "> 50", "unit": "%"}, {"measurement": "Activity", "setting": "[7]", "result": "< 20", "unit": "%"}, {"measurement": "Activity", "setting": "[8]", "result": "> 20", "unit": "%"}]}, {"smiles": "CCO[C@H]1CC[C@@H](n2cc(NC(=O)c3csc(-c4cn[nH]c4)n3)c(-c3nc(F)ccc3F)n2)CC1", "values": [{"measurement": "EC50", "setting": "[2]", "result": 195, "unit": "nM"}]}]}
